Laboratory results as given in patent publication US12391648B2, “Pyridyloxy thioester derivative and preparation method therefor, herbicidal composition, and application” (Qingdao Kingagroot Chemical Compound Co., Ltd., priority 2018, dated 2025).

How the values were obtained:
Assay in all cases: Post-emergence test experiment (Table 3, 1000 g/ha)
Type in all cases: in vivo
Settings in all cases: post-emergence spray, after 3 weeks, fresh weight inhibition
Setaria viridis = test system: Setaria viridis
From the text: (§1) The activity level standard of harmful plants destruction (i. e. growth inhibition rate) is as follows: • Level 5: the growth inhibition rate is greater than 85%; • Level 4: the growth inhibition rate is equal to or greater than 60% and less than 85%; • Level 3: the growth inhibition rate is equal to or greater than 40% and less than 60%; • Level 2: the growth inhibition rate is equal to or greater than 20% and less than 40%; • Level 1: the growth inhibition rate is equal to or greater than 5% and less than 20%; • Level 0: the growth inhibition rate is less than 5%;
(§2) The above described growth inhibition rate is fresh weight inhibition rate.
(§3) Post-emergence test experiment: Monocotyledonous and dicotyledonous weed seeds and main crop seeds (i. e. wheat, corn, rice, soybean, cotton, oilseed, millet and sorghum.) were put into a plastic pot loaded with soil. Then covered with 0.5-2 cm soil, the seeds were allowed to grow in good greenhouse environment. The test plants were treated at 2-3 leaf stage 2 weeks after sowing. The test compounds of the invention were dissolved with acetone respectively, then added with tween-80, and using 1.5 liters per hectare of an emulsible concentrate of methyl oleate as a synergist, and diluted by certain amount of water to certain concentration. The solution was sprayed to the plants with a sprayer. Then the plants were cultured for 3 weeks in the greenhouse, and the experiment result of weed controlling effect after 3 weeks was listed in tables 3-4.

Leptochloa chinensis = test system: Leptochloa chinensis
From the text: as §1, §2, §3

Galium spurium = test system: Galium spurium
From the text: as §1, §2, §3

Monochoria vaginalis = test system: Monochoria vaginalis
From the text: as §1, §2, §3

Digitaria sanguinalis = test system: Digitaria sanguinalis
From the text: as §1, §2, §3

Abutilon theophrasti = test system: Abutilon theophrasti
From the text: as §1, §2, §3

Structure (SMILES) | Activity level (growth inhibition rate) Setaria viridis (Setaria viridis) | Activity level (growth inhibition rate) Leptochloa chinensis (Leptochloa chinensis) | Activity level (growth inhibition rate) Galium spurium (Galium spurium) | Activity level (growth inhibition rate) Monochoria Vaginalis (Monochoria vaginalis) | Activity level (growth inhibition rate) Digitaria sanguinalis (Digitaria sanguinalis) | Activity level (growth inhibition rate) Abutilon theophrasti (Abutilon theophrasti)
CSC(=O)C(C)Oc1ncc(Cl)c(N)c1C (stereo not drawn) [Compound 21] | 5 (Level 5: the growth inhibition rate is greater than 85%) | 5 (Level 5: the growth inhibition rate is greater than 85%) | 5 (Level 5: the growth inhibition rate is greater than 85%) | 5 (Level 5: the growth inhibition rate is greater than 85%) | 5 (Level 5: the growth inhibition rate is greater than 85%) | 5 (Level 5: the growth inhibition rate is greater than 85%)
CC(Oc1nc(F)c(Cl)c(N)c1Cl)C(=O)SC1CCC1 (stereo not drawn) [Compound 124] | 5 (Level 5: the growth inhibition rate is greater than 85%) | 5 (Level 5: the growth inhibition rate is greater than 85%) | 5 (Level 5: the growth inhibition rate is greater than 85%) | 5 (Level 5: the growth inhibition rate is greater than 85%) | 5 (Level 5: the growth inhibition rate is greater than 85%) | 5 (Level 5: the growth inhibition rate is greater than 85%)
CC(C)CCCSC(=O)C(C)Oc1nc(F)c(Cl)c(N)c1Cl (stereo not drawn) [Compound 154] | 5 (Level 5: the growth inhibition rate is greater than 85%) | 5 (Level 5: the growth inhibition rate is greater than 85%) | 5 (Level 5: the growth inhibition rate is greater than 85%) | 5 (Level 5: the growth inhibition rate is greater than 85%) | 5 (Level 5: the growth inhibition rate is greater than 85%) | 5 (Level 5: the growth inhibition rate is greater than 85%)
CSC(=O)C(Oc1nc(F)c(Cl)c(N)c1Cl)C(F)(F)F (stereo not drawn) [Compound 41] |  |  | 5 (Level 5: the growth inhibition rate is greater than 85%) | 5 (Level 5: the growth inhibition rate is greater than 85%) |  | 5 (Level 5: the growth inhibition rate is greater than 85%)
CSC(=O)C(Oc1nc(F)c(Cl)c(N)c1Cl)c1cn(C)nc1C (stereo not drawn) [Compound 57] |  |  | 5 (Level 5: the growth inhibition rate is greater than 85%) | 5 (Level 5: the growth inhibition rate is greater than 85%) |  | 5 (Level 5: the growth inhibition rate is greater than 85%)
C=CC(Oc1nc(F)c(Cl)c(N)c1Cl)C(=O)SC (stereo not drawn) [Compound 32] |  |  | 5 (Level 5: the growth inhibition rate is greater than 85%) | 5 (Level 5: the growth inhibition rate is greater than 85%) |  | 5 (Level 5: the growth inhibition rate is greater than 85%)
CSC(=O)C(Cc1ccccc1)Oc1nc(F)c(Cl)c(N)c1Cl (stereo not drawn) [Compound 126] |  |  | 5 (Level 5: the growth inhibition rate is greater than 85%) | 5 (Level 5: the growth inhibition rate is greater than 85%) |  | 5 (Level 5: the growth inhibition rate is greater than 85%)
CSC(=O)C(CN(C)C)Oc1nc(F)c(Cl)c(N)c1Cl (stereo not drawn) [Compound 46] |  |  | 5 (Level 5: the growth inhibition rate is greater than 85%) | 5 (Level 5: the growth inhibition rate is greater than 85%) |  | 5 (Level 5: the growth inhibition rate is greater than 85%)
CSC(=O)C(F)Oc1nc(F)c(Cl)c(N)c1Cl (stereo not drawn) [Compound 34] |  |  | 5 (Level 5: the growth inhibition rate is greater than 85%) | 5 (Level 5: the growth inhibition rate is greater than 85%) |  | 5 (Level 5: the growth inhibition rate is greater than 85%)
CSC(=O)C(Oc1nc(F)c(Cl)c(N)c1Cl)c1ccco1 (stereo not drawn) [Compound 54] |  |  | 5 (Level 5: the growth inhibition rate is greater than 85%) | 5 (Level 5: the growth inhibition rate is greater than 85%) |  | 5 (Level 5: the growth inhibition rate is greater than 85%)
COC(=O)C(Oc1nc(F)c(Cl)c(N)c1Cl)C(=O)SC (stereo not drawn) [Compound 52] |  |  | 5 (Level 5: the growth inhibition rate is greater than 85%) | 5 (Level 5: the growth inhibition rate is greater than 85%) |  | 5 (Level 5: the growth inhibition rate is greater than 85%)
CCC(Oc1nc(Cl)c(Cl)c(N)c1Cl)C(=O)SC (stereo not drawn) [Compound 24] |  |  | 5 (Level 5: the growth inhibition rate is greater than 85%) | 5 (Level 5: the growth inhibition rate is greater than 85%) |  | 5 (Level 5: the growth inhibition rate is greater than 85%)
CSC(=O)C(Oc1nc(F)c(Cl)c(N)c1Cl)SC (stereo not drawn) [Compound 47] |  |  | 5 (Level 5: the growth inhibition rate is greater than 85%) | 5 (Level 5: the growth inhibition rate is greater than 85%) |  | 5 (Level 5: the growth inhibition rate is greater than 85%)
CSC(=O)C(CCl)Oc1nc(F)c(Cl)c(N)c1Cl (stereo not drawn) [Compound 37] |  |  | 5 (Level 5: the growth inhibition rate is greater than 85%) | 5 (Level 5: the growth inhibition rate is greater than 85%) |  | 5 (Level 5: the growth inhibition rate is greater than 85%)
CSC(=O)C(Oc1nc(F)c(Cl)c(N)c1Cl)c1cccs1 (stereo not drawn) [Compound 53] |  |  | 5 (Level 5: the growth inhibition rate is greater than 85%) | 5 (Level 5: the growth inhibition rate is greater than 85%) |  | 5 (Level 5: the growth inhibition rate is greater than 85%)
CCSC(=O)C(Oc1nc(F)c(Cl)c(N)c1Cl)c1ccc(C(F)(F)F)cc1 (stereo not drawn) [Compound 60] |  |  | 5 (Level 5: the growth inhibition rate is greater than 85%) | 5 (Level 5: the growth inhibition rate is greater than 85%) |  | 5 (Level 5: the growth inhibition rate is greater than 85%)
CCC(Oc1ncc(Cl)c(N)c1Cl)C(=O)SC (stereo not drawn) [Compound 23] |  |  | 5 (Level 5: the growth inhibition rate is greater than 85%) | 5 (Level 5: the growth inhibition rate is greater than 85%) |  | 5 (Level 5: the growth inhibition rate is greater than 85%)
C#CC(Oc1nc(F)c(Cl)c(N)c1Cl)C(=O)SC (stereo not drawn) [Compound 33] |  |  | 5 (Level 5: the growth inhibition rate is greater than 85%) | 5 (Level 5: the growth inhibition rate is greater than 85%) |  | 5 (Level 5: the growth inhibition rate is greater than 85%)
CSC(=O)C(CC(F)(F)F)Oc1nc(F)c(Cl)c(N)c1Cl (stereo not drawn) [Compound 42] |  |  | 5 (Level 5: the growth inhibition rate is greater than 85%) | 5 (Level 5: the growth inhibition rate is greater than 85%) |  | 5 (Level 5: the growth inhibition rate is greater than 85%)
COCC(Oc1nc(F)c(Cl)c(N)c1Cl)C(=O)SC (stereo not drawn) [Compound 29] |  |  | 5 (Level 5: the growth inhibition rate is greater than 85%) | 5 (Level 5: the growth inhibition rate is greater than 85%) |  | 5 (Level 5: the growth inhibition rate is greater than 85%)
CSC(=O)C(Oc1nc(F)c(Cl)c(N)c1Cl)C(C)C (stereo not drawn) [Compound 27] |  |  | 5 (Level 5: the growth inhibition rate is greater than 85%) | 5 (Level 5: the growth inhibition rate is greater than 85%) |  | 5 (Level 5: the growth inhibition rate is greater than 85%)
